Data set [1] can be described thus: Density of oxygenate additive (main properties comparison).
Data set [2] in a line: Solubility / miscibility in diesel fuel. The class given is physicochemical.
Data set [3] is described as follows: Solubility in gasoline or aviation turbine fuel. It counts as physicochemical.

Turning to `COCCOCCOC` [DGM, diethylene glycol dimethyl ether], the Flash point in the data set “Flash point” came to 70 °C. The molecule further showed a Heat of combustion in the data set “Heat of combustion” of -2.52e+07 J/kg. Further, the Lower heating value in “Lower heating value” is recorded as 24.5 kJ/g. Besides, the Lower flammability limit in “Lower flammability limit” was found to be 1.2 % vol. This molecule also gave a Density in data set [1] of 937 kg/m^3.

Turning to `COCC(COC)OC` [GTME, glycerol trimethyl ether], the “solubility in diesel fuel” value in data set [2] (diesel fuel) is given as roughly 100%. Further, the “dissolution in gasoline or aviation turbine fuel” value in data set [3] is given as “completely dissolved”.

Regarding glycerol dimethyl ethers [GDMEs], in data set [2] (too much amount mixed with diesel fuel), the “miscibility with diesel fuel” value is given as “phase separation”.

These data come from patent publication US20130133245A1, “OXYGENATE ADDITIVE FOR INTERNAL COMBUSTION ENGINE FUEL, FUEL COMPOSITION COMPRISING THE SAME AND IMPROVED PROCESS FOR PRODUCING HIGHLY METHYLATED GLYCEROL ETHERS” (priority 2011, published 2013).
